Each block holds one compound with its values, some of them ahead of it.
Tests used:
[1] = molecular target: Receptor-interacting serine/threonine-protein kinase 2 (Homo sapiens, UniProt O43353); assay: Binding affinity to RIPK2 (unknown origin) assessed as dissociation constant by kinomescan assay
CYP2D6 = CYP2D6 (Homo sapiens, UniProt P10635); assay: Inhibition of CYP2D6 (unknown origin) at 10 uM relative to control; type: ADME
CYP3A4 [2] = molecular target: T1, CYP3A4 (Homo sapiens, UniProt P08684); assay: Inhibition of CYP3A4 (unknown origin) at 10 uM using testosterone as substrate relative to control; type: ADME; details: probe testosterone
CYP2C19 = CYP2C19 (Homo sapiens, UniProt P33261); assay: Inhibition of CYP2C19 (unknown origin) at 10 uM relative to control; type: ADME
CYP3A4 [3] = molecular target: T1, CYP3A4; assay: Inhibition of CYP3A4 (unknown origin) at 10 uM using midazolam as substrate relative to control; type: ADME; details: probe midazolam
CYP2C9 = CYP2C9 (Homo sapiens, UniProt P11712); assay: Inhibition of CYP2C9 (unknown origin) at 10 uM relative to control; type: ADME
[4] = Metabolic stability in mouse liver microsomes assessed as half life; type: ADME
[5] = Metabolic stability in dog liver microsomes assessed as half life; type: ADME, Canis lupus familiaris
[6] = Metabolic stability in human liver microsomes assessed as intrinsic clearance; type: ADME; details: read-out: CLH
[7] = Metabolic stability in rat liver microsomes assessed as half life; type: ADME
[8] = molecular target: T2, Receptor-interacting serine/threonine-protein kinase 1 (Homo sapiens, UniProt Q13546); assay: Binding affinity to RIPK1 (unknown origin) assessed as dissociation constant by kinomescan assay
T2 sequence (Q13546 whole entry): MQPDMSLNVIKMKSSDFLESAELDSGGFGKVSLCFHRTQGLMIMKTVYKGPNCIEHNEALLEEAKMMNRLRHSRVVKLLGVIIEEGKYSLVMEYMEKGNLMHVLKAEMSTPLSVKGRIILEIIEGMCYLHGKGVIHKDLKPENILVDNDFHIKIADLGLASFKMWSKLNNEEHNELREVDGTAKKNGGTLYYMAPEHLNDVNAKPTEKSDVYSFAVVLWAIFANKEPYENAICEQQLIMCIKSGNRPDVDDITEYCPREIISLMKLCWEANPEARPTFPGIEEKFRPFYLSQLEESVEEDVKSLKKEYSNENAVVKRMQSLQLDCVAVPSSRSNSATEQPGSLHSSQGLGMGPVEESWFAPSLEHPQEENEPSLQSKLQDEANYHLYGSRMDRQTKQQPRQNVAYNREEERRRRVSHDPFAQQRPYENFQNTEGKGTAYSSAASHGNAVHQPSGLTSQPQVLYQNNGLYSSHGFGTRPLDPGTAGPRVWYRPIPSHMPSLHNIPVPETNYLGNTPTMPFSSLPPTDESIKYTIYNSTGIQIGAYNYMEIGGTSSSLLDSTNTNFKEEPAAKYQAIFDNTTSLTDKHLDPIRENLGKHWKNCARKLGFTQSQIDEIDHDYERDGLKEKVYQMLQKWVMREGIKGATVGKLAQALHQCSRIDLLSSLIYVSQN

[9] = Metabolic stability in human liver microsomes assessed as half life; type: ADME
CYP1A2 = molecular target: T3, CYP1A2 (Homo sapiens, UniProt P05177); assay: Inhibition of CYP1A2 (unknown origin) at 10 uM relative to control; type: ADME
T3 sequence (P05177 whole entry): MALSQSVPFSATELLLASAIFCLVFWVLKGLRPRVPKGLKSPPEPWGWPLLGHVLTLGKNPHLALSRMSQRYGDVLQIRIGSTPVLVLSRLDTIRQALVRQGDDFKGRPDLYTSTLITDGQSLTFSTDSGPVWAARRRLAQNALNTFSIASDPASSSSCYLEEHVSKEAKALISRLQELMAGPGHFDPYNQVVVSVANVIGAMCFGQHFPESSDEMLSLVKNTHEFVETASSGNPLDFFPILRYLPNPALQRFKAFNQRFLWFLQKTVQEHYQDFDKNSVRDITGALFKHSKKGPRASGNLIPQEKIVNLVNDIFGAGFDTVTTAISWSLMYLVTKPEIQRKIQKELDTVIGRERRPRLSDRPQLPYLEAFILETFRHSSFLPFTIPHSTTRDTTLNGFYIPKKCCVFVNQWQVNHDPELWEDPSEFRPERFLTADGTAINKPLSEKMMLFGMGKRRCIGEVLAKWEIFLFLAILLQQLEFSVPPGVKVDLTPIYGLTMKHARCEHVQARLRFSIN

THP-1 = assay: Antiinflammatory activity in MDP-stimulated IL-8 production in human THP-1 cells pretreated for 2 hrs followed by MDP stimulation for 6 hrs; type: functional, cell-based
[10] = molecular target: Receptor-interacting serine/threonine-protein kinase 3 (Homo sapiens, UniProt Q9Y572); assay: Binding affinity to RIPK3 (unknown origin) assessed as dissociation constant by kinomescan assay
[11] = molecular target: Voltage-gated inwardly rectifying potassium channel KCNH2 (Homo sapiens, UniProt Q12809); assay: Inhibition of hERG; type: toxicity
[12] = Metabolic stability in rat liver microsomes assessed as intrinsic clearance; type: ADME; details: read-out: CLH
[13] = Metabolic stability in monkey liver microsomes assessed as intrinsic clearance; type: ADME, Macaca mulatta; details: rhesus monkey, read-out: CLH
[14] = Metabolic stability in dog liver microsomes assessed as intrinsic clearance; type: ADME, Canis lupus familiaris; details: read-out: CLH
[15] = Metabolic stability in monkey liver microsomes assessed as half life; type: ADME, Macaca mulatta; details: rhesus monkey
[16] = Metabolic stability in mouse liver microsomes assessed as intrinsic clearance; type: ADME; details: read-out: CLH

CYP2C19, sequence (P33261 whole entry): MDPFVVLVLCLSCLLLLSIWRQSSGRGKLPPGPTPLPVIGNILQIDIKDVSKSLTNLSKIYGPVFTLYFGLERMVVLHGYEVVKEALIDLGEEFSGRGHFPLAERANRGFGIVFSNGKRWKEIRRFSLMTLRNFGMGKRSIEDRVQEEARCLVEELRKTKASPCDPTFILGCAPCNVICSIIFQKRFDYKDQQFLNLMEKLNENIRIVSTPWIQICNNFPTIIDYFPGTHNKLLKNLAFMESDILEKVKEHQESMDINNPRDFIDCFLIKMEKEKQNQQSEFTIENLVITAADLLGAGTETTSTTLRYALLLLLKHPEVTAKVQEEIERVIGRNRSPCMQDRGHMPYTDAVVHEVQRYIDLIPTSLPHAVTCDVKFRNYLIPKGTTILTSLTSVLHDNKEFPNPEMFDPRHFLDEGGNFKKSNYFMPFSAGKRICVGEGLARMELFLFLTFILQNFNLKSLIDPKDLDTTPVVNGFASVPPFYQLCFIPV
CYP2C9, sequence (P11712 whole entry): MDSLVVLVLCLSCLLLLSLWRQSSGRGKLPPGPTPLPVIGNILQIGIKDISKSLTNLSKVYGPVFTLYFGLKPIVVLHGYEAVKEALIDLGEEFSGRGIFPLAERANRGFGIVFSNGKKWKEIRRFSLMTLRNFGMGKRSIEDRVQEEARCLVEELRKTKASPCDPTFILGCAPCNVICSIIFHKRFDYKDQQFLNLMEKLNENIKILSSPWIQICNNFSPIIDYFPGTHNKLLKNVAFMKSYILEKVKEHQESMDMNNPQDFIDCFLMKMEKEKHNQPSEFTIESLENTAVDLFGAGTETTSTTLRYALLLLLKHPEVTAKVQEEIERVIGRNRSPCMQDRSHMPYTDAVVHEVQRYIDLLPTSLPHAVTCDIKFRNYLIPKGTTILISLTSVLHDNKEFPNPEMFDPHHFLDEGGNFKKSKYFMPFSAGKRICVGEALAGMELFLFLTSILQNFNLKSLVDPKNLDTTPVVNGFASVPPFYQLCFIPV
CYP2D6, sequence (P10635 whole entry): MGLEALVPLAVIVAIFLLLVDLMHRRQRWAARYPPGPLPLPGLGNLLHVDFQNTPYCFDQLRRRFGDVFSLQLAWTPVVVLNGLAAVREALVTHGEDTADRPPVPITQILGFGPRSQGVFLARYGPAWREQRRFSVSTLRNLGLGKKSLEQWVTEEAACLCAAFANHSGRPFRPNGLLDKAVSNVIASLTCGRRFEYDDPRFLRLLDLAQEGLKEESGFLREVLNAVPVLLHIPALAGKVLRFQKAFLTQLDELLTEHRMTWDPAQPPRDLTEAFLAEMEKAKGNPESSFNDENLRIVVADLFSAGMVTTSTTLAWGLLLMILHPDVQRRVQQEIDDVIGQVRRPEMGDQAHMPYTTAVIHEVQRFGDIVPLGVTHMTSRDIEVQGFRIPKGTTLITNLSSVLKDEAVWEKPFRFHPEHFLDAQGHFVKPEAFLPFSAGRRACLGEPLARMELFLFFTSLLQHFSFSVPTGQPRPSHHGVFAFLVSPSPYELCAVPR
T1 sequence (P08684 whole entry): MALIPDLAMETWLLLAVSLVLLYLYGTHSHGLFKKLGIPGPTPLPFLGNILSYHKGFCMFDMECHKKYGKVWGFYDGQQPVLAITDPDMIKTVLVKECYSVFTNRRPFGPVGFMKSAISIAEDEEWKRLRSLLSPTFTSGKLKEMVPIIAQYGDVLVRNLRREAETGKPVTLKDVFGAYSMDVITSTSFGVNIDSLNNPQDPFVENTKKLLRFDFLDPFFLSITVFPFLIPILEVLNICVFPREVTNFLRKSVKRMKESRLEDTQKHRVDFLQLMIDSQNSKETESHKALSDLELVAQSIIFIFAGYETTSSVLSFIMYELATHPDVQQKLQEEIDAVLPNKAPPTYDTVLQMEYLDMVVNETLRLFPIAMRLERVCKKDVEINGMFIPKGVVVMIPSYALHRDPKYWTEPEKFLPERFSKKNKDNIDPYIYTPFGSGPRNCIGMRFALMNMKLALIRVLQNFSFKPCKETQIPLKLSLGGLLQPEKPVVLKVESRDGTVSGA
Receptor-interacting serine/threonine-protein kinase 2, sequence (O43353 whole entry): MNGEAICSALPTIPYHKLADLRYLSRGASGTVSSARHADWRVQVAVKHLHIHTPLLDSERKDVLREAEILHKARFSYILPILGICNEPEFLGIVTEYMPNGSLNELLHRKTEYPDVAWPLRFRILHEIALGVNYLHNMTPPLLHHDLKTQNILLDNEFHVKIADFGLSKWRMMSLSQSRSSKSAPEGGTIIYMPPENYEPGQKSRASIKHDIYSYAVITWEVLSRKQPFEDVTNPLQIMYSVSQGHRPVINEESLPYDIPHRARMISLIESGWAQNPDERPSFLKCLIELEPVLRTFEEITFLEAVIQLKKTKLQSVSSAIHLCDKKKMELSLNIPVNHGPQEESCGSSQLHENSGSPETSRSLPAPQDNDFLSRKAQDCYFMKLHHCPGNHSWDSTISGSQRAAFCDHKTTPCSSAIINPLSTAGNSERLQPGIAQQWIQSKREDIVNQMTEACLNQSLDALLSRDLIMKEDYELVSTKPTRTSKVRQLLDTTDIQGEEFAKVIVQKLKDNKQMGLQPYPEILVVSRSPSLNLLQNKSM
Receptor-interacting serine/threonine-protein kinase 3, sequence (Q9Y572 whole entry): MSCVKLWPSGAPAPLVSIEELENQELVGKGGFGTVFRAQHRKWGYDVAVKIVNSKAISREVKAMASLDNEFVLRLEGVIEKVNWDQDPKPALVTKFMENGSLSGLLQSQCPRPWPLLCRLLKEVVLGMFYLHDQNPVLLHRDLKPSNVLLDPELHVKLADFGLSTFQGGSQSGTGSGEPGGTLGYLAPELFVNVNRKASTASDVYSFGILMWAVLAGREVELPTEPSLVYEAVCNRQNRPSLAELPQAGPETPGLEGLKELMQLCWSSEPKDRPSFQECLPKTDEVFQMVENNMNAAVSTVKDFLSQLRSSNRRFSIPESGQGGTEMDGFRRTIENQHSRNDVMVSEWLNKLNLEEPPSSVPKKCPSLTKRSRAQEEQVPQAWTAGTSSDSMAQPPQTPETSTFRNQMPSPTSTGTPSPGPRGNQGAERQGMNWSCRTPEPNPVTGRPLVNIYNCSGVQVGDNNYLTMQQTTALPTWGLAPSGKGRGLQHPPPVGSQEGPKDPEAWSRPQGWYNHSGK
Voltage-gated inwardly rectifying potassium channel KCNH2, sequence (Q12809 whole entry): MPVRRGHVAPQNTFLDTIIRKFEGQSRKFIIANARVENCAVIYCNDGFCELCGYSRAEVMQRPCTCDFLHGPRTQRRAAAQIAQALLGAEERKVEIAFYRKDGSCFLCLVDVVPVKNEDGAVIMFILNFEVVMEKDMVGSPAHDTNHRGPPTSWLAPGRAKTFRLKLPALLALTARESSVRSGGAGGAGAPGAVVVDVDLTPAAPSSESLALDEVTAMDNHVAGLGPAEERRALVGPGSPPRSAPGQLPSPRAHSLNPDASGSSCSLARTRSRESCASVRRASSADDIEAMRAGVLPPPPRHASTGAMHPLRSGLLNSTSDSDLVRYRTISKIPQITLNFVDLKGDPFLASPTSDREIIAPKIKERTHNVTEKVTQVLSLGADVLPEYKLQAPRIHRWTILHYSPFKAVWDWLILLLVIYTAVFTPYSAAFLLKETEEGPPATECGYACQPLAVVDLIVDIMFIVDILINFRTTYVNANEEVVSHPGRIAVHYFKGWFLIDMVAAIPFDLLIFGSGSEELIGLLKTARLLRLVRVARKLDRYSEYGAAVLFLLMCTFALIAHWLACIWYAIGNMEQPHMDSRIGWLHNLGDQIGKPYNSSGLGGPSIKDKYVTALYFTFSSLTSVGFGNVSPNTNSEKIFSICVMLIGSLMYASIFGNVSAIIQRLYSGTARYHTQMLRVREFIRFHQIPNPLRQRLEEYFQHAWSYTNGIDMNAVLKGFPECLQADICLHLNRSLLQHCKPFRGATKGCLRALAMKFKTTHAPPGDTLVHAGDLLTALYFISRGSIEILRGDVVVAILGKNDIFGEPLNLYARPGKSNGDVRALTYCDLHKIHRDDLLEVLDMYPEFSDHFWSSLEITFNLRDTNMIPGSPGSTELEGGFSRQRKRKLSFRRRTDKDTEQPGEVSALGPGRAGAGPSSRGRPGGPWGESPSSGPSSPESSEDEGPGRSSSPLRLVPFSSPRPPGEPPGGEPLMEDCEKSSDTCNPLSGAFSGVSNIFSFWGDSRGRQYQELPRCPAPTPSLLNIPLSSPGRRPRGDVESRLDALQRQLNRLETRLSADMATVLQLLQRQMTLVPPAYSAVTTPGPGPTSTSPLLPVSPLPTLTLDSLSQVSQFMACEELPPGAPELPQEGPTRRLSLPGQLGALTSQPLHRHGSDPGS

Compound: COC1=CS(=O)(=O)c2cc3c(Nc4ccc5scnc5c4)ncnc3cc21
- Kd [1]: 27 nM

Compound: O=S1(=O)C=C(C2CC2)c2cc3ncnc(Nc4ccc5nc[nH]c5c4)c3cc21
- Kd [1]: 325 nM

Compound: CC1=Cc2cc3nc(C)nc(Nc4ccc5scnc5c4)c3cc2S1(=O)=O
- Kd [1]: 685 nM

Compound: CCOC1=CS(=O)(=O)c2cc3c(Nc4ccc5scnc5c4)ncnc3cc21
- inhibition at 10 µM (CYP2D6): -23.2%
- inhibition at 10 µM (CYP3A4 [2]): -0.93%
- inhibition at 10 µM (CYP2C19): 16.6%
- inhibition at 10 µM (CYP3A4 [3]): 0%
- inhibition at 10 µM (CYP2C9): 10.7%
- half-life [4]: 62.7 min
- half-life [5]: 25.9 min
- CLint scaled [6]: 9.19 mL/min/kg
- half-life [7]: 142 min
- Kd [8]: > 30000 nM
- Kd [1]: 5.9 nM
- half-life [9]: 189 min
- inhibition at 10 µM (CYP1A2): 18.1%
- IC50 (THP-1): 1.99 nM
- Kd [10]: 43 nM
- IC50 [11]: > 10000 nM
- CLint scaled [12]: 17.5 mL/min/kg
- CLint scaled [13]: 53.3 mL/min/kg
- CLint scaled [14]: 133 mL/min/kg
- half-life [15]: 38 min
- CLint scaled [16]: 87 mL/min/kg

Compound: Cc1ccc(O)cc1Nc1ncnc2cc3c(cc12)S(=O)(=O)C=C3C1CC1
- Kd [1]: 70 nM

Compound: O=S1(=O)C=C(c2ccccc2)c2cc3ncnc(Nc4ccc5scnc5c4)c3cc21
- Kd [1]: 109 nM

Compound: CC1=Cc2cc3ncnc(Nc4ccc5scnc5c4)c3cc2S1(=O)=O
- Kd [1]: 55 nM

Compound: CC1=CS(=O)(=O)c2cc3c(Nc4ccc5scnc5c4)ncnc3cc21
- Kd [1]: 14 nM

Compound: O=S1(=O)C=C(C2CC2)c2cc3ncnc(Nc4ccc5cc[nH]c5c4)c3cc21
- Kd [1]: 1200 nM

Compound: CCOC1=C(C)S(=O)(=O)c2cc3c(Nc4ccc5scnc5c4)ncnc3cc21
- Kd [1]: 24 nM

Compound: O=S1(=O)C=C(c2ccc(F)cc2)c2cc3ncnc(Nc4ccc5scnc5c4)c3cc21
- Kd [1]: 545 nM

Compound: O=S1(=O)C=C(C2CC2)c2cc3ncnc(Nc4cc(O)ccc4F)c3cc21
- Kd [1]: 14 nM

Now from value to compound:

- Kd [1]: 10 nM
Compound: Cc1[nH]nc(Nc2ncnc3cc4c(cc23)S(=O)(=O)C=C4C2CC2)c1C

- Kd [1]: 10 nM
Compound: O=S1(=O)C=C(C2CC2)c2cc3ncnc(Nc4n[nH]c5ccc(F)cc45)c3cc21

- Kd [1]: 0.78 nM
- IC50 (THP-1): 1.34 nM
Compound: CC(C)(C)S(=O)(=O)c1cc2c(Nc3ccc4scnc4c3)ncnc2cc1OCCOP(=O)(O)O

- inhibition at 10 µM (CYP2D6): -15.7%
- inhibition at 10 µM (CYP3A4 [2]): 6.88%
- inhibition at 10 µM (CYP2C19): 11.5%
- inhibition at 10 µM (CYP3A4 [3]): -3.32%
- inhibition at 10 µM (CYP2C9): -1.42%
- half-life [4]: 23.7 min
- half-life [5]: 4.61 min
- CLint scaled [6]: 32.8 mL/min/kg
- half-life [7]: 59 min
- Kd [1]: 8.2 nM
- half-life [9]: 53 min
- inhibition at 10 µM (CYP1A2): 14.9%
- CLint scaled [12]: 42.1 mL/min/kg
- CLint scaled [13]: 97 mL/min/kg
- CLint scaled [14]: 749 mL/min/kg
- half-life [15]: 20.9 min
- CLint scaled [16]: 230 mL/min/kg
Compound: CC1=C(C)S(=O)(=O)c2cc3c(Nc4ccc5scnc5c4)ncnc3cc21

- Kd [1]: 10 nM
Compound: O=S1(=O)C=C(C2CC2)c2cc3ncnc(Nc4ccc5nn[nH]c5c4)c3cc21

- inhibition at 10 µM (CYP2D6): -13.6%
- inhibition at 10 µM (CYP3A4 [2]): 14.3%
- inhibition at 10 µM (CYP2C19): 40.6%
- inhibition at 10 µM (CYP3A4 [3]): 14.9%
- inhibition at 10 µM (CYP2C9): 11.9%
- half-life [4]: 15.9 min
- half-life [5]: 10.8 min
- CLint scaled [6]: 27 mL/min/kg
- half-life [7]: 61 min
- Kd [1]: 3.3 nM
- half-life [9]: 64.3 min
- inhibition at 10 µM (CYP1A2): 19.9%
- CLint scaled [12]: 40.8 mL/min/kg
- CLint scaled [13]: 71 mL/min/kg
- CLint scaled [14]: 320 mL/min/kg
- half-life [15]: 28.5 min
- CLint scaled [16]: 344 mL/min/kg
Compound: O=S1(=O)C=C(C2CC2)c2cc3ncnc(Nc4ccc5scnc5c4)c3cc21

— ChEMBL document CHEMBL5223112, “Design, synthesis, and structure-activity relationship of novel RIPK2 inhibitors” (Bioorg Med Chem Lett, 2022)
